Measurements as given in patent US20230398130A1, “METHODS AND COMPOSITIONS FOR DIFFERENTIATING STEM CELLS” (Massachusetts Institute of Technology, priority 2020, published 2023).

What was measured:
ISC-enriched organoids [1] = assay: Primary screen, 384-well 2.5-D organoid differentiation (ENR+CD, 6 days, Target Selective Inhibitor Library, vs whole-plate median): ATP (CellTiter-Glo 3D, CTG); settings: for Dose.FC.CTG (log 2 fold change, ATP): vs plate median
ISC-enriched organoids [2] = assay: Primary screen, 384-well 2.5-D organoid differentiation (ENR+CD, 6 days): carbachol-induced lysozyme secretion (LYZ.S); assay type: cell-based, murine; settings: vs plate median
Source text: (§1) High-throughput screening.

ISC-enriched organoids [3] = assay: Primary screen, 384-well 2.5-D organoid differentiation (ENR+CD, 6 days): basal lysozyme secretion (LYZ.NS); assay type: cell-based, murine; settings: for Dose.FC.LYZ.NS (log 2 fold change, basal lysozyme secretion): vs plate median
Source text: as §1

Row | SMILES | Z.CTG (standard z score) (ISC-enriched organoids [1]; dose 0.08 uM) | Dose.FC.CTG (log 2 fold change, ATP) (ISC-enriched organoids [1]; dose 0.08 uM) | Z.CTG (standard z score) (ISC-enriched organoids [1]; dose 0.40 uM) | Dose.FC.CTG (log 2 fold change, ATP) (ISC-enriched organoids [1]; dose 0.40 uM) | Z.CTG (standard z score) (ISC-enriched organoids [1]; dose 2.00 uM) | Dose.FC.CTG (log 2 fold change, ATP) (ISC-enriched organoids [1]; dose 2.00 uM) | Z.CTG (standard z score) (ISC-enriched organoids [1]; dose 10.00 uM) | Dose.FC.CTG (log 2 fold change, ATP) (ISC-enriched organoids [1]; dose 10.00 uM) | Dose.FC.LYZ.S (log 2 fold change, carbachol-induced lysozyme secretion) (ISC-enriched organoids [2]; dose 0.08 uM) | Dose.FC.LYZ.S (log 2 fold change, carbachol-induced lysozyme secretion) (ISC-enriched organoids [2]; dose 0.40 uM) | Dose.FC.LYZ.S (log 2 fold change, carbachol-induced lysozyme secretion) (ISC-enriched organoids [2]; dose 2.00 uM) | Dose.FC.LYZ.S (log 2 fold change, carbachol-induced lysozyme secretion) (ISC-enriched organoids [2]; dose 10.00 uM) | Z.LYZ.NS (standard z score) (ISC-enriched organoids [3]; dose 0.08 uM) | Dose.FC.LYZ.NS (log 2 fold change, basal lysozyme secretion) (ISC-enriched organoids [3]; dose 0.08 uM) | Z.LYZ.NS (standard z score) (ISC-enriched organoids [3]; dose 0.40 uM) | Dose.FC.LYZ.NS (log 2 fold change, basal lysozyme secretion) (ISC-enriched organoids [3]; dose 0.40 uM) | Z.LYZ.NS (standard z score) (ISC-enriched organoids [3]; dose 2.00 uM) | Dose.FC.LYZ.NS (log 2 fold change, basal lysozyme secretion) (ISC-enriched organoids [3]; dose 2.00 uM) | Z.LYZ.NS (standard z score) (ISC-enriched organoids [3]; dose 10.00 uM) | Dose.FC.LYZ.NS (log 2 fold change, basal lysozyme secretion) (ISC-enriched organoids [3]; dose 10.00 uM)
1 | C[C@H](NC(=O)Cc1cc(F)cc(F)c1)C(=O)N[C@@H]1C(=O)N(C)c2ccccc2-c2ccccc21 [YO-01027] | 0.528 | 0.221 | −1.135 | −0.475 | −1.363 | −0.571 | −2.464 | −1.032 | 0.105 | −0.058 | −0.020 | −0.184 | 0.443 | 0.051 | 0.739 | 0.085 | −0.699 | −0.080 | −1.369 | −0.157
2 | Cc1cc(C)nc(NS(=O)(=O)c2ccc(NC(=S)NC(=O)COc3ccc(Br)cc3Cl)cc2)n1 [ZCL278] | −2.303 | −0.964 | 0.044 | 0.018 | −0.545 | −0.228 | −0.247 | −0.104 | −0.107 | 0.077 | −0.079 | −0.080 | −0.729 | −0.084 | −0.325 | −0.037 | 0.218 | 0.025 | 0.130 | 0.015
3 | COc1cc2ncnc(Nc3ccc(Cl)cc3F)c2cc1OC [ZM 306416] | −0.190 | −0.080 | −1.155 | −0.483 | −3.135 | −1.312 | −3.559 | −1.490 | 0.006 | −0.288 | −0.403 | −0.431 | 0.912 | 0.105 | −1.942 | −0.223 | −2.531 | −0.291 | −2.395 | −0.275
4 | COc1cc2c(Nc3ccc(NC(=O)c4ccccc4)cc3)ncnc2cc1OCCCN1CCOCC1 [ZM 447439] | 1.222 | 0.512 | 0.725 | 0.304 | 0.552 | 0.231 | −0.574 | −0.240 | 0.171 | 0.108 | 0.074 | −0.132 | 0.896 | 0.103 | 0.932 | 0.107 | 0.456 | 0.052 | −0.695 | −0.080
5 | COc1nc(C)cnc1NS(=O)(=O)c1cccnc1-c1ccc(-c2nnco2)cc1 [Zibotentan (ZD4054)] | 0.249 | 0.104 | −0.022 | −0.009 | −1.834 | −0.768 | −0.003 | −0.001 | 0.168 | 0.130 | −0.038 | 0.050 | 0.820 | 0.094 | 0.474 | 0.054 | −0.029 | −0.003 | 0.877 | 0.101
